Columns and labels:
[1] = system: human liver cancer cells HepG2; test: MTT growth inhibition, HepG2 cells; assay type: cell-based; details: 72 h after treatment, read-out: Drug concentration (IC50) at which 50% cancer cells survived
Excerpt: (§1) Cell lines and cell culture: human lung cancer cells A549 and H460, human breast cancer cells MCF-7 and MDA-MB-231, human gastric cancer cells BGC-823, human prostate cancer cells PC-3, human chronic leukemia cells K562, human lymphoma cells U937, human liver cancer cells SMMC7721 and HepG2, human colon cancer cells HT29, human pancreatic cancer cells PANC-1 and BxPC3, human cervical cancer Hela cell lines, human brain tumor cells Daoy, human neuroma cells D54 and human oral epidermoid cancer cells KBV200 line with strong drug resistance, mouse melanoma cells B16, and highly metastatic Lewis lung cancer cell lines were purchased from American Type Culture Collection of the U.S. These cells were cultured with DMEM and RPMI-1640 culture solutions separately.
(§2) The procedure was as follows:
(§3) (1) 0.25% trypsin was used to digest cancer cells in a logarithmic growth phase to prepare a single-cell suspension, the concentration of cells was adjusted to 5×10^4/mL, and the adjusted suspension was inoculated into a 96-well culture plate with 100 μl per well;
(§4) (2) The culture plate was transferred into a 37° C. incubator with a saturated humidity and 5% of CO2 and cultured for 24 h; the compounds and the intermediates thereof obtained in embodiments 1-7 and the compound as represented by formula (IIIa) or the positive control anti-cancer drug with the concentration of 1-1000 μM/L were added to enable the final concentration to be 0.1-1500 μM/L. Control wells (only added with 200 μl of cell suspension) and drug-free blank control wells (containing the solvent of 0.01% DMSO) were set, each group included 8 wells, and the plate was placed into the 37° C. incubator with saturated humidity and 5% of CO2 for culturing;
(§5) (3) The 96-well plate was taken out at 48 h and 72 h after dosing, the original culture medium was carefully removed by suction, 100 μl of serum-free DMEM culture medium and 10 μl of MTT (5 mg/mL) solution were added in each well. The plate was continuously cultured for another 4 h and then the culture was terminated;
(§6) (4) The supernatant in the wells was carefully removed by suction, each well was added with 150 μl of DMSO and shaked at room temperature for 10-15 min to fully dissolve crystals.
(§7) (5) Colorimetric analysis: the wavelength was selected as 570 nm, the light absorbance (A value) of each well was determined on the microplate reader and the results were recorded; the experiment was repeated for three times;
(§8) (6) the experimental results were calculated according to the following formula: relative survival rate=(A value of each experimental group/A value of cell control group)×100%
(§9) Calculation of median-effect concentration (IC50, namely the drug concentration at which the inhibition rate is 50%, also known as half inhibitory concentration):
(§10) IC50 of the detected component was calculated by using a regression equation.

mouse melanoma cells B16 = test: MTT growth inhibition, B16 cells; assay type: cell-based; details: Mus musculus, 72 h after treatment, read-out: Drug concentration (IC50) at which 50% cancer cells survived
Excerpt: as §1, §2, §3, §4, §5, §6, §7, §8, §9, §10

[2] = system: human chronic leukemia cells K562; test: MTT growth inhibition, K562 cells; assay type: cell-based; details: 72 h after treatment, read-out: Drug concentration (IC50) at which 50% cancer cells survived
Excerpt: as §1, §2, §3, §4, §5, §6, §7, §8, §9, §10

[3] = system: human lymphoma cells U937; test: MTT growth inhibition, U937 cells; assay type: cell-based; details: Homo sapiens, U-937, 72 h after treatment, read-out: Drug concentration (IC50) at which 50% cancer cells survived
Experimental: as §2, §5, §6, §7, §8, §10

[4] = system: human breast cancer cells MCF-7; test: MTT growth inhibition, MCF-7 cells; assay type: cell-based; details: MCF7, 72 h after treatment, read-out: Drug concentration (IC50) at which 50% cancer cells survived
Excerpt: as §1, §2, §3, §4, §5, §6, §7, §8, §9, §10

[5] = system: human pancreatic cancer cells BxPC3; test: MTT growth inhibition, BxPc3 cells; assay type: cell-based; details: Homo sapiens, BXPC-3, 72 h after treatment, read-out: Drug concentration (IC50) at which 50% cancer cells survived
Excerpt: as §1, §2, §3, §4, §5, §6, §7, §8, §9, §10

[6] = system: human gastric cancer cells BGC-823; test: MTT growth inhibition, BGC-823 cells; assay type: cell-based; details: 72 h after treatment, read-out: Drug concentration (IC50) at which 50% cancer cells survived
Excerpt: as §1, §2, §3, §4, §5, §6, §7, §8, §9, §10

[7] = system: human cervical cancer Hela cell lines; test: MTT growth inhibition, Hela cells; assay type: cell-based; details: Homo sapiens, 72 h after treatment, read-out: Drug concentration (IC50) at which 50% cancer cells survived
Excerpt: as §1, §2, §3, §4, §5, §6, §7, §8, §9, §10

[8] = system: human pancreatic cancer cells PANC-1; test: MTT growth inhibition, PANC-1 cells; assay type: cell-based; details: 72 h after treatment, read-out: Drug concentration (IC50) at which 50% cancer cells survived
Excerpt: as §1, §2, §3, §4, §5, §6, §7, §8, §9, §10

[9] = system: human lung cancer cells H460; test: MTT growth inhibition, H460 cells; assay type: cell-based; details: NCI-H460, 72 h after treatment, read-out: Drug concentration (IC50) at which 50% cancer cells survived
Excerpt: as §1, §2, §3, §4, §5, §6, §7, §8, §9, §10

[10] = system: human oral epidermoid cancer cells KBV200; test: MTT growth inhibition, KBV200 cells; assay type: cell-based; details: 72 h after treatment, read-out: Drug concentration (IC50) at which 50% cancer cells survived
Excerpt: as §1, §2, §3, §4, §5, §6, §7, §8, §9, §10

[11] = system: human brain tumor cells Daoy; test: MTT growth inhibition, Daoy cells; assay type: cell-based; details: Homo sapiens, 72 h after treatment, read-out: Drug concentration (IC50) at which 50% cancer cells survived
Excerpt: as §1, §2, §3, §4, §5, §6, §7, §8, §9, §10

[12] = system: human colon cancer cells HT29; test: MTT growth inhibition, HT29 cells; assay type: cell-based; details: HT-29, 72 h after treatment, read-out: Drug concentration (IC50) at which 50% cancer cells survived
Excerpt: as §1, §2, §3, §4, §5, §6, §7, §8, §9, §10

[13] = system: human lung cancer cells A549; test: MTT growth inhibition, A549 cells; assay type: cell-based; details: 72 h after treatment, read-out: Drug concentration (IC50) at which 50% cancer cells survived
Excerpt: as §1, §2, §3, §4, §5, §6, §7, §8, §9, §10

[14] = system: Caski human cervical cancer cells; test: MTT growth inhibition, Caski cells; assay type: cell-based; details: Ca-Ski, 72 h after treatment, read-out: Drug concentration (IC50) at which 50% cancer cells survived
[15] = system: human liver cancer cells SMMC7721; test: MTT growth inhibition, SMMC7721 cells; assay type: cell-based; details: SMMC-7721, S-7721 (SMMC7721), 72 h after treatment, read-out: Drug concentration (IC50) at which 50% cancer cells survived
Excerpt: as §1, §2, §3, §4, §5, §6, §7, §8, §9, §10

[16] = system: highly metastatic Lewis lung cancer cell lines; test: MTT growth inhibition, LLC cells; assay type: cell-based, mouse; details: Mus musculus, Lewis lung carcinoma, 72 h after treatment, read-out: Drug concentration (IC50) at which 50% cancer cells survived
Excerpt: as §1, §2, §3, §4, §5, §6, §7, §8, §9, §10

human neuroma cells D54 = test: MTT growth inhibition, D54 cells; assay type: cell-based; details: Homo sapiens, 72 h after treatment, read-out: Drug concentration (IC50) at which 50% cancer cells survived
Excerpt: as §1, §2, §3, §4, §5, §6, §7, §8, §9, §10

[17] = system: human breast cancer cells MDA-MB-231; test: MTT growth inhibition, MDA-MB-231 cells; assay type: cell-based; details: 72 h after treatment, read-out: Drug concentration (IC50) at which 50% cancer cells survived
Excerpt: as §1, §2, §3, §4, §5, §6, §7, §8, §9, §10

[18] = system: human prostate cancer cells PC-3; test: MTT growth inhibition, PC-3 cells; assay type: cell-based; details: 72 h after treatment, read-out: Drug concentration (IC50) at which 50% cancer cells survived
Excerpt: as §1, §2, §3, §4, §5, §6, §7, §8, §9, §10

Row | Structure (SMILES) | IC50 [1] | IC50 (mouse melanoma cells B16) | IC50 [2] | IC50 [3] | IC50 [4] | IC50 [5] | IC50 [6] | IC50 [7] | IC50 [8] | IC50 [9] | IC50 [10] | IC50 [11] | IC50 [12] | IC50 [13] | IC50 [14] | IC50 [15] | IC50 [16] | IC50 (human neuroma cells D54) | IC50 [17] | IC50 [18]
1 | O=C(O)c1cc2cc(Cl)ccc2oc1=O [Compound IIIc, 6-chlorocoumarin-3-carboxylic acid] | 300 µM | 600 µM | 600 µM | 500 µM | 300 µM | 500 µM | 300 µM | 600 µM | 500 µM | 350 ± 50 µM | 400 µM | 400 µM | 700 µM | 600 ± 30 µM | 400 µM | 500 µM | 400 µM | 300 µM | 500 µM | 500 µM
2 | O=C(O)c1cc2cc(Br)cc(Br)c2oc1=O [Compound IIIh, 6,8-dibromo-coumarin-3-carboxylic acid] | 145 µM | 460 µM | 480 µM | 390 µM | 450 µM | 400 µM | 480 µM | 290 µM | 480 µM | 550 µM | 300 µM | 350 µM | 590 µM | 450 µM | 135 µM | 530 µM | 350 µM | 300 µM | 420 µM | 410 µM
